One series relates to transplanted rat glioma. Particulars: Volkow et al. 1983, cited from earlier work.
A further series can be described thus: in vivo. Particulars: mouse. How it is done:
Male Swiss albino mice (BNL strain, 20-32 g) were used in this study. No-carrier-added [1-^11 C]putrescine (0.05-0.20 μCi/mouse of specific activity greater than 1.4 Ci/μmol; 36-140 pmol/mouse) was injected by tail vein into mice and the animals were killed by cervical dislocation at the desired time interval (5, 30 and 60 minutes). The various organs were rapidly removed, blotted free of blood and placed in preweighed counting vials and the vials were sealed. Tissue samples as well as injection standards were counted in a Packard automated sodium iodide well counter. Both percent injected dose per gram of tissue and percent injected dose per organ were determined from the decay corrected activity.

Consider two molecules from patent US4874600A, “No-carrier-added [1^11 c]putrescine” (The United States of America as Represented by the United …, priority 1986, dated 1989).

SMILES strings stand for the structures.

Take `NCCCCN` [putrescine]: in the series with transplanted rat glioma (transplanted rat glioma vs normal brain tissue), the “in vivo uptake into transplanted rat glioma relative to normal brain tissue” value is 35 times greater. The “metabolism to spermine by the tumor (in words)” value in the series on transplanted rat glioma (transplanted rat glioma, in contrast to adjacent normal brain tissue) is reported as “rapid”.
Broadly, the tissue uptake is the share of the injected amount in each gram of the tissue. Read a low tissue uptake as low uptake. For the molecule `NCCC[11CH2]N` [no-carrier-added [1-^11 C]putrescine, [1-^11 C]putrescine], in “in vivo”, the “accumulation of activity in normal brain compared with other tissues (in words)” value is recorded as “less in the normal brain than for other tissues”; the “tissues of main uptake (in words)” value is “taken up by the liver, kidneys, and small intestine”. In the series “in vivo” (iv), this molecule yielded a tissue uptake at 5 min of 1.37 ± 0.18 %ID/g, a tissue uptake at 0.5 h of 0.82 ± 0.11 %ID/g and a tissue uptake at 1 h of 0.76 ± 0.46 %ID/g. For the same molecule, in “in vivo” (iv, 5 min), the “Tissue distribution, Brain” value turned out to be 0.12 ± 0.01 % Dose/Organ; the “Tissue distribution, Heart” value was 0.19 ± 0.04 % Dose/Organ; the “Tissue distribution, Kidney” value amounted to 10.5 ± 2.0 % Dose/Organ; the “Tissue distribution, Liver” value turned out to be 5.96 ± 1.2 % Dose/Organ. In “in vivo” (iv, 5 min), the “Tissue distribution, Lungs” value came to 0.57 ± 0.08 % Dose/Organ; the “Tissue distribution, Small Intestine” value came to 13.7 ± 5.0 % Dose/Organ; the “Tissue distribution, Spleen” value is 0.57 ± 0.35 % Dose/Organ. For the same molecule, in “in vivo” (iv, 30 min), the “Tissue distribution, Brain” value turned out to be 0.15 ± 0.01 % Dose/Organ; the “Tissue distribution, Heart” value came out at 0.15 ± 0.02 % Dose/Organ; the “Tissue distribution, Kidney” value is recorded as 2.63 ± 0.36 % Dose/Organ; the “Tissue distribution, Liver” value worked out at 4.85 ± 0.75 % Dose/Organ. Moreover, in the series “in vivo” (iv, 30 min), the “Tissue distribution, Lungs” value is given as 0.48 ± 0.08 % Dose/Organ; the “Tissue distribution, Small Intestine” value is 7.61 ± 2.00 % Dose/Organ; the “Tissue distribution, Spleen” value was found to be 0.56 ± 0.25 % Dose/Organ. In addition, in “in vivo” (iv, 60 min), the “Tissue distribution, Brain” value is 0.13 ± 0.01 % Dose/Organ; the “Tissue distribution, Heart” value is given as 0.12 ± 0.01 % Dose/Organ; the “Tissue distribution, Kidney” value stood at 1.27 ± 0.21 % Dose/Organ; the “Tissue distribution, Liver” value is recorded as 3.70 ± 0.50 % Dose/Organ. Moreover, in the series “in vivo” (iv, 60 min), the “Tissue distribution, Lungs” value came to 0.43 ± 0.08 % Dose/Organ; the “Tissue distribution, Small Intestine” value stood at 4.40 ± 1.66 % Dose/Organ; the “Tissue distribution, Spleen” value is listed as 0.48 ± 0.16 % Dose/Organ.
